Values quoted from earlier work in US12258594B2, “Cas proteins with reduced immunogenicity and methods of screening thereof” (THE BROAD INSTITUTE, INC., priority 2018, dated 2025).

Test system: target DNA
Conditions: AsCpf1 mutants

Compound	DNA cleavage activity
R192A: R192A mutant of AsCpf1	reduced activities
R176A: R176A mutant of AsCpf1	reduced activities
51228A: mutant of Ser1228 of AsCpf1	comparable to that of wild-type AsCpf1
R1226A: R1226A mutant of AsCpf1	almost no activity
E993A: E993A mutant of AsCpf1	almost no activity
K548A: K548A mutant of AsCpf1	reduced activities
M604A: M604A mutant of AsCpf1	reduced activities
D908A: D908A mutant of AsCpf1	almost no activity
W382A: W382A mutant of AsCpf1	reduced activity
K607A: K607A mutant of AsCpf1	almost no activity
D1235A: D1235A mutant of AsCpf1	reduced activity
R951A: R951A mutant of AsCpf1	reduced activities
D1263A: D1263A mutant of AsCpf1	significantly reduced activity
G783P: G783P mutant of AsCpf1	reduced activities

Same assay, conditions: AsCpf1 mutants, target and non-target strand

Compound	DNA strand cleaved
R1226A: R1226A mutant of AsCpf1	acts as a nickase that cleaves the non-target DNA strand, but not the target strand

Test system: target sites with PAM
Conditions: AsCpf1 and variants

Compound	PAM of target sites that can be cleaved
S542R/K607R: AsCpf1 variant with the mutations S542R/K607R	TYCV/CCCC
AsCpf1: Acidaminococcus sp. BV3L6 Cpf1	TTTV
S542R/K548V/N552R: AsCpf1 variant with the mutations S542R/K548V/N552R	TATV

Same assay, conditions: in vitro and in human cells

Compound	activities at the altered PAMs
S542R/K607R: AsCpf1 variant with the mutations S542R/K607R	enhanced activities
S542R/K548V/N552R: AsCpf1 variant with the mutations S542R/K548V/N552R	enhanced activities

Test system: dystrophin gene exon 51
Conditions: across 48 weeks

Compound	average dystrophin positive fibers compared to baseline [%]
eteplirsen	47

Test system: Factor VII
Conditions: LNP siRNA systems containing the lipid; hepatocytes in vivo

Compound	gene silencing potencies, series (rank order)
1,2-dilinoleyloxy-keto-N,N-dimethyl-3-aminopropane [DLinKDMA]	DLinKC2-DMA>DLinKDMA>DLinDMA>>DLinDAP
CCCCC/C=C\C/C=C\CCCCCCCCC1(CCCCCCCC/C=C\C/C=C\CCCCC)OCC(CCN(C)C)O1 (stereo not shown) [DLinKC2-DMA, 1,2-dilinoleyl-4-(2-dimethylaminoethyl)-[1,3]-dioxolane]	DLinKC2-DMA>DLinKDMA>DLinDMA>>DLinDAP
CCCCC/C=C\C/C=C\CCCCCCCC(=O)OCC(CN(C)C)OC(=O)CCCCCCC/C=C\C/C=C\CCCCC (stereo not shown) [DLinDAP, 1,2-dilineoyl-3-dimethylammonium-propane]	DLinKC2-DMA>DLinKDMA>DLinDMA>>DLinDAP
CCCCC/C=C\C/C=C\CCCCCCCCOCC(CN(C)C)OCCCCCCCC/C=C\C/C=C\CCCCC (stereo not shown) [DLinDMA, 1,2-dilinoleyloxy-3-N,N-dimethylaminopropane]	DLinKC2-DMA>DLinKDMA>DLinDMA>>DLinDAP
